The numbers were not newly measured in patent US11639345B2, “Methionine metabolic pathway inhibitors” (MIGAL—GALILEE RESEARCH INSTITUTE LTD., priority 2018, dated 2023), which cites them from elsewhere.

In this series the target is T1, CGS from Nicotiana tabacum (Nicotiana tabacum, UniProt Q9ZPL5).
T1 sequence (Q9ZPL5 96-540 limits assumed): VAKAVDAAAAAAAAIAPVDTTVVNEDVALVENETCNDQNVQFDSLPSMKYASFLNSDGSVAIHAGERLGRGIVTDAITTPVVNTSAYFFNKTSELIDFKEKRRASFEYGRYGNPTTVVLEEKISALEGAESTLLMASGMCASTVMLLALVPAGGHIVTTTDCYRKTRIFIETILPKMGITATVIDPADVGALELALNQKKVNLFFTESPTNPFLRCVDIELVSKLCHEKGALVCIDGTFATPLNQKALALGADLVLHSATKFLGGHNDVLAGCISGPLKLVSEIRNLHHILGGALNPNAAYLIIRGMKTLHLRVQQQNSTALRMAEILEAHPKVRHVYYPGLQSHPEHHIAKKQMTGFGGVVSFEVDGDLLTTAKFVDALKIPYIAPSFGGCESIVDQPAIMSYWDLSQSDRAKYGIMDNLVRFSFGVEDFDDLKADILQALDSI
To be noted: Steegborn et al. (2001); cited from earlier work.

Turning to `O=C(O)CSc1nc(-c2cccc(Cl)c2)no1` [5-carboxymethylthio-3-(3′-chlorophenyl)-1,2,4-oxadiazol], the “affinity to the CGS” value is “highest affinity to the CGS reported so far”.
